According to US11247965B2 (VenatoRx Pharmaceuticals, Inc., priority 2017, dated 2022):
pEC50: −log10 of the molar value.

Columns and labels:
[1] = tested on: HBV replication in HepAD38 cells; assay: Anti-HBV activity in HepAD38 cells, extracellular HBV DNA by QPCR; format: cell-based, HBV (genotype D, serotype ayw); conditions: Hepatitis B virus, HePAD38, 168 h, read-out: Anti-HBV EC50, HepAD38 cells, extracellular HBV DNA by QPCR, 7 days of incubation
Method in brief: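 HepAD38 cells (HepG2 with tet-repressible HBV genotype D genome) seeded overnight, tetracycline removed, then treated 7 days with compounds (half-log dilutions, 30 μM–10 nM; 1:200 from DMSO). Supernatant HBV DNA quantified by QPCR against standard curve; % inhibition vs vehicle, EC50 by 4-parameter fit.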

[2] = In vitro cytotoxicity, MTT cell viability assay in HepG2 cells; format: cell-based; conditions: human, Cytotoxicity CC50
Method in brief: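 Viability measured by MTT conversion, absorbance at 492 nm, as percent of vehicle-treated wells. Compounds spanned 30 μM to 1.0 nM in half-log steps over a 7-day exposure of parental HepG2 cells; CC50 derived by 4-parameter curve fit.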

Structure (SMILES): O=C(Nc1ccc(F)c(F)c1)c1ccc(F)c(C(F)(F)C(=O)Nc2ccncc2)c1 [Example 50, 3-(1,1-difluoro-2-oxo-2-(pyridin-4-ylamino)ethyl)-N-(3,4-difluorophenyl)-4-fluorobenzamide]
- pEC50 [1]: 4.52 to 5.30
- CC50 at 7 days [2]: 5 to 30 µM

Structure (SMILES): Cc1cc(NC(=O)c2ccc(F)c(C(F)(F)C(=O)N3CCC(O)(CO)CC3)c2)ccc1F [Example 75, 3-(1,1-difluoro-2-(4-hydroxy-4-(hydroxymethyl)piperidin-1-yl)-2-oxoethyl)-4-fluoro-N-(4-fluoro-3-methylphenyl)benzamide]
- pEC50 [1]: > 5.30
- CC50 at 7 days [2]: 5 to 30 µM

Structure (SMILES): CC[C@H](C)NC(=O)C(F)(F)c1c(C(=O)Nc2ccc(F)c(C)c2)ccn1C [Example 108, (S)-2-(2-(sec-butylamino)-1,1-difluoro-2-oxoethyl)-N-(4-fluoro-3-methylphenyl)-1-methyl-1H-pyrrole-3-carboxamide]
- pEC50 [1]: > 5.30
- CC50 at 7 days [2]: > 30 µM

Structure (SMILES): CC(C)(C)NC(=O)C(O)c1cc(C(=O)Nc2ccc(F)c(F)c2)ccc1F (centres unmarked) [Example 119, 3-(2-(tert-butylamino)-1-hydroxy-2-oxoethyl)-N-(3,4-difluorophenyl)-4-fluorobenzamide]
- pEC50 [1]: 4.52 to 5.30
- CC50 at 7 days [2]: 5 to 30 µM

Structure (SMILES): CC(C)(CCO)NC(=O)C(F)(F)c1cc(C(=O)Nc2ccc(F)c(F)c2)ccc1F [Example 45, 3-(1,1-difluoro-2-((4-hydroxy-2-methylbutan-2-yl)amino)-2-oxoethyl)-N-(3,4-difluorophenyl)-4-fluorobenzamide]
- pEC50 [1]: > 5.30
- CC50 at 7 days [2]: 5 to 30 µM

Structure (SMILES): COc1ccc(CNC(=O)C(F)(F)c2cc(C(=O)Nc3ccc(F)c(F)c3)ccc2F)c(OC)c1 [Example 64, N-(3,4-difluorophenyl)-3-(2-((2,4-dimethoxybenzyl)amino)-1,1-difluoro-2-oxoethyl)-4-fluorobenzamide]
- pEC50 [1]: 4.52 to 5.30
- CC50 at 7 days [2]: 5 to 30 µM

Structure (SMILES): Cc1cc(NC(=O)c2ccc(F)c(C(F)(F)C(=O)N3C4COCC3CC(=NO)C4)c2)ccc1F [Example 273, 3-(1,1-difluoro-2-(7-(hydroxyimino)-3-oxa-9-azabicyclo[3.3.1]nonan-9-yl)-2-oxoethyl)-4-fluoro-N-(4-fluoro-3-methylphenyl)benzamide]
- pEC50 [1]: > 5.30
- CC50 at 7 days [2]: 5 to 30 µM

Structure (SMILES): O=C(Nc1ccc(F)cc1Cl)c1ccc(Cl)c(C(F)(F)C(=O)N2CCC(O)CC2)c1 [Example 41, 4-chloro-N-(2-chloro-4-fluorophenyl)-3-(1,1-difluoro-2-(4-hydroxypiperidin-1-yl)-2-oxoethyl)benzamide]
- pEC50 [1]: 4.52 to 5.30
- CC50 at 7 days [2]: > 30 µM

Structure (SMILES): Cc1cc(NC(=O)c2cc(C(F)(F)C(=O)N[C@@H]3CCCC[C@H]3O)n(C)c2)ccc1F [Example 127, 5-(1,1-difluoro-2-(((1R,2R)-2-hydroxycyclohexyl)amino)-2-oxoethyl)-N-(4-fluoro-3-methylphenyl)-1-methyl-1H-pyrrole-3-carboxamide]
- pEC50 [1]: > 5.30
- CC50 at 7 days [2]: > 30 µM

Structure (SMILES): O=C(Nc1ccc(F)c(Cl)c1)c1ccc(F)c(C(F)(F)C(=O)N2CCC(O)CC2)c1 [Example 85, N-(3-chloro-4-fluorophenyl)-3-(1,1-difluoro-2-(4-hydroxypiperidin-1-yl)-2-oxoethyl)-4-fluorobenzamide]
- pEC50 [1]: > 5.30
- CC50 at 7 days [2]: 5 to 30 µM

Structure (SMILES): O=C(Nc1cc(F)c(F)c(F)c1)c1ccc(F)c(C(F)(F)C(=O)N2[C@@H]3CC[C@H]2C[C@H](O)C3)c1 [Example 188, 3-(1,1-difluoro-2-((1R,3s,5S)-3-hydroxy-8-azabicyclo[3.2.1]octan-8-yl)-2-oxoethyl)-4-fluoro-N-(3,4,5-trifluorophenyl)benzamide]
- pEC50 [1]: > 5.30
- CC50 at 7 days [2]: 5 to 30 µM

Structure (SMILES): Cc1cc(NC(=O)c2ccc(F)c(C(F)(F)C(=O)N3[C@@H]4CCC[C@H]3C[C@H](O)C4)c2)ccc1F [Example 217, 3-(1,1-difluoro-2-((1R,3s,5S)-3-hydroxy-9-azabicyclo[3.3.1]nonan-9-yl)-2-oxoethyl)-4-fluoro-N-(4-fluoro-3-methylphenyl)benzamide]
- pEC50 [1]: > 5.30
- CC50 at 7 days [2]: 5 to 30 µM

Structure (SMILES): Cc1cc(NC(=O)c2ccc(F)c(C(F)(F)C(=O)N3CCOC[C@H]3C(=O)O)c2)ccc1F [Example 237, (S)-4-(2,2-difluoro-2-(2-fluoro-5-((4-fluoro-3-methylphenyl)carbamoyl)phenyl)acetyl)morpholine-3-carboxylic acid]
- pEC50 [1]: 4.52 to 5.30
- CC50 at 7 days [2]: > 30 µM

Structure (SMILES): CCC(C)(C)NC(=O)C(F)(F)c1cc(C(=O)Nc2ccc(F)c(F)c2)ccc1F [Example 19, 3-(1,1-difluoro-2-oxo-2-(tert-pentylamino)ethyl)-N-(3,4-difluorophenyl)-4-fluorobenzamide]
- pEC50 [1]: > 5.30
- CC50 at 7 days [2]: 5 to 30 µM

Structure (SMILES): O=C(Nc1ccc(F)c(F)c1)c1ccc(Cl)c(C(F)(F)C(=O)N2CCC(O)CC2)c1 [Example 42, 4-chloro-3-(1,1-difluoro-2-(4-hydroxypiperidin-1-yl)-2-oxoethyl)-N-(3,4-difluorophenyl)benzamide]
- pEC50 [1]: > 5.30
- CC50 at 7 days [2]: 5 to 30 µM

Structure (SMILES): CC(C)n1cc(NC(=O)c2ccc(F)c(C(F)(F)C(=O)N3[C@@H]4CC[C@H]3C[C@H](O)C4)c2)cn1 [Example 185, 3-(1,1-difluoro-2-((1R,3s,5S)-3-hydroxy-8-azabicyclo[3.2.1]octan-8-yl)-2-oxoethyl)-4-fluoro-N-(1-isopropyl-1H-pyrazol-4-yl)benzamide]
- pEC50 [1]: 4.52 to 5.30
- CC50 at 7 days [2]: > 30 µM

Structure (SMILES): Cc1cc(NC(=O)c2ccn(C)c2C(F)(F)C(=O)NC(C)(C)C)ccc1F [Example 101, 2-(2-(tert-butylamino)-1,1-difluoro-2-oxoethyl)-N-(4-fluoro-3-methylphenyl)-1-methyl-1H-pyrrole-3-carboxamide]
- pEC50 [1]: > 5.30
- CC50 at 7 days [2]: > 30 µM

Structure (SMILES): Cc1cc(NC(=O)c2cc(Br)c(C(F)(F)C(=O)N3CCC(O)CC3)n2C)ccc1F [Example 98, 4-bromo-5-(1,1-difluoro-2-(4-hydroxypiperidin-1-yl)-2-oxoethyl)-N-(4-fluoro-3-methylphenyl)-1-methyl-1H-pyrrole-2-carboxamide]
- pEC50 [1]: < 4.52
- CC50 at 7 days [2]: > 30 µM

Structure (SMILES): Cc1cc(NC(=O)c2ccc(F)c(C(F)(F)C(=O)N3CCn4c(nnc4C(F)(F)F)C3)c2)ccc1F [Example 341, 3-(1,1-difluoro-2-oxo-2-(3-(trifluoromethyl)-5,6-dihydro-[1,2,4]triazolo[4,3-a]pyrazin-7(8H)-yl)ethyl)-4-fluoro-N-(4-fluoro-3-methylphenyl)benzamide]
- pEC50 [1]: 4.52 to 5.30
- CC50 at 7 days [2]: 5 to 30 µM

Structure (SMILES): O=C(Nc1ccc(F)c(F)c1)c1ccc(F)c(C(F)(F)C(=O)N(CCO)CCO)c1 [Example 16, 3-(2-(bis(2-hydroxyethyl)amino)-1,1-difluoro-2-oxoethyl)-N-(3,4-difluorophenyl)-4-fluorobenzamide]
- pEC50 [1]: 4.52 to 5.30
- CC50 at 7 days [2]: > 30 µM

Structure (SMILES): O=C(Nc1ccc(F)c(F)c1)c1ccc(F)c(C(F)(F)C(=O)NCc2cccnc2)c1 [Example 66, 3-(1,1-difluoro-2-oxo-2-((pyridin-3-ylmethyl)amino)ethyl)-N-(3,4-difluorophenyl)-4-fluorobenzamide]
- pEC50 [1]: 4.52 to 5.30
- CC50 at 7 days [2]: > 30 µM

Structure (SMILES): Cn1cc(NC(=O)c2ccc(F)c(C(F)(F)C(=O)N3CCC(O)(CO)CC3)c2)cn1 [Example 182, 3-(1,1-difluoro-2-(4-hydroxy-4-(hydroxymethyl)piperidin-1-yl)-2-oxoethyl)-4-fluoro-N-(1-methyl-1H-pyrazol-4-yl)benzamide]
- pEC50 [1]: 4.52 to 5.30
- CC50 at 7 days [2]: > 30 µM

Structure (SMILES): Cc1cc(NC(=O)c2cc(C(F)(F)C(=O)N3CCC(B(O)O)CC3)n(C)c2)ccc1F [Example 122, (1-(2,2-difluoro-2-(4-((4-fluoro-3-methylphenyl)carbamoyl)-1-methyl-1H-pyrrol-2-yl)acetyl)piperidin-4-yl)boronic acid]
- pEC50 [1]: 4.52 to 5.30
- CC50 at 7 days [2]: > 30 µM

Structure (SMILES): Cn1cc(NC(=O)c2ccc(F)c(C(F)(F)C(=O)N3[C@@H]4CC[C@H]3C[C@@H](O)C4)c2)cn1 [Example 180, 3-(1,1-difluoro-2-((1R,3r,5S)-3-hydroxy-8-azabicyclo[3.2.1]octan-8-yl)-2-oxoethyl)-4-fluoro-N-(1-methyl-1H-pyrazol-4-yl)benzamide]
- pEC50 [1]: 4.52 to 5.30
- CC50 at 7 days [2]: > 30 µM

Structure (SMILES): Cc1cc(NC(=O)c2ccc(Cl)c(C(F)(F)C(=O)N3CC[C@@H](O)[C@@H](O)C3)c2)ccc1F [Example 57, 4-chloro-3-(2-((3S,4R)-3,4-dihydroxypiperidin-1-yl)-1,1-difluoro-2-oxoethyl)-N-(4-fluoro-3-methylphenyl)benzamide]
- pEC50 [1]: > 5.30
- CC50 at 7 days [2]: > 30 µM

Structure (SMILES): Cc1cc(NC(=O)c2cc(C(O)C(=O)NC(C)(C)C)cn2C)ccc1F (centres unmarked) [Example 121, 4-(2-(tert-butylamino)-1-hydroxy-2-oxoethyl)-N-(4-fluoro-3-methylphenyl)-1-methyl-1H-pyrrole-2-carboxamide]
- pEC50 [1]: > 5.30
- CC50 at 7 days [2]: > 30 µM

Structure (SMILES): CC(=O)N[C@H]1CCN(C(=O)C(F)(F)c2cc(C(=O)Nc3ccc(F)c(C)c3)ccc2F)CC1(C)C [Example 327, (S)-3-(2-(4-acetamido-3,3-dimethylpiperidin-1-yl)-1,1-difluoro-2-oxoethyl)-4-fluoro-N-(4-fluoro-3-methylphenyl)benzamide]
- pEC50 [1]: > 5.30
- CC50 at 7 days [2]: > 30 µM

Structure (SMILES): Cc1cc(NC(=O)c2ccc(F)c(C(F)(F)C(=O)N3CCC(F)(F)CC3)c2)ccc1F [Example 278, 3-(2-(4,4-difluoropiperidin-1-yl)-1,1-difluoro-2-oxoethyl)-4-fluoro-N-(4-fluoro-3-methylphenyl)benzamide]
- pEC50 [1]: 4.52 to 5.30
- CC50 at 7 days [2]: > 30 µM
